This is an account of results in ChEMBL document CHEMBL1201862, “PubChem BioAssay data set” (2004).

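These data come from cells grown in 96-well plates and exposed to compound for 48 hours at five concentrations. GI50 is the concentration that inhibits growth by half.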 Calls of active or inactive are those of the source. Rule as the data show it: active = GI50 up to about 1.1 µM and inactive = higher.

Test systems include CAKI-1; SF-539; 786-0; K562; HOP-92; RXF 393; OVCAR-3; SNB-19; SW-620; NCI-H522; SF-268; PC-3; MOLT-4; KM12; SN12C; HCT-15; U-251; NCI-H460; Malme-3M; SK-MEL-28.
Common to all, as to experiment: growth of human tumour cells (NCI), 48 h

In the case of `CC1=C(C(=O)NC(C)(C)C)CC(C(=O)NC(C)(C)C)C(C)N1` (stereo not drawn), the GI50 is > 100 µM (inactive) in the experiment with CAKI-1; > 100 µM (inactive) in the experiment on SF-539; > 100 µM (inactive) with 786-0; > 100 µM (inactive) in the experiment with K562; 71.1 µM (inactive) in the experiment with HOP-92; > 100 µM (inactive) with RXF 393. The GI50 with OVCAR-3 is > 100 µM (inactive); in the experiment with SNB-19, 85.1 µM (inactive); in the experiment on SW-620, > 100 µM (inactive); in the experiment on NCI-H522, > 100 µM (inactive); with SF-268, > 100 µM (inactive); with PC-3 it was > 100 µM (inactive). Further, the GI50 in the experiment with MOLT-4 is > 100 µM (inactive); with KM12 it was > 100 µM (inactive); in the experiment on SN12C it was > 100 µM (inactive); in the experiment on HCT-15 it was more than 100 µM; in the experiment with U-251, > 100 µM (inactive); in the experiment on NCI-H460 it was > 100 µM (inactive).
As for `CCOC(=O)/C=C(/C)Nc1nc2c(c(C(=O)OC)c1C#N)CCCC2`, the GI50 with CAKI-1, in the experiment with Malme-3M, with 786-0, in the experiment on K562, with HOP-92 and with RXF 393 was > 100 µM (inactive) each time. The GI50 with SNB-19, in the experiment on SW-620, in the experiment on NCI-H522, in the experiment on SK-MEL-28, in the experiment with SF-268 and with PC-3 was > 100 µM (inactive) throughout. The GI50 in the experiment on MOLT-4 was 63 µM (inactive); with KM12, > 100 µM (inactive); with SN12C it was > 100 µM (inactive); in the experiment on HCT-15, more than 100 µM; in the experiment on U-251, > 100 µM (inactive); in the experiment on NCI-H460 it was > 100 µM (inactive).
Regarding `O=C(N/N=C/c1ccc(Cl)cc1)c1cc(I)cc(I)c1O`, the GI50 in the experiment with CAKI-1 is > 100 µM (inactive); with SF-539, > 100 µM (inactive); with 786-0, > 100 µM (inactive); in the experiment on K562, > 100 µM (inactive); in the experiment on HOP-92, 92.3 µM (inactive); in the experiment with RXF 393, > 100 µM (inactive). Besides, the GI50 with OVCAR-3, with SNB-19, in the experiment on SW-620, in the experiment with SK-MEL-28, in the experiment with PC-3 and in the experiment with MOLT-4 was > 100 µM (inactive) in each case. The GI50 with KM12 is > 100 µM (inactive); in the experiment on SN12C it was > 100 µM (inactive); with HCT-15, more than 100 µM; in the experiment with U-251 it was > 100 µM (inactive).
For the molecule `COc1cc(COC(=O)N2CCCCC2C(=O)O)c([N+](=O)[O-])cc1OC` (stereo not drawn), the GI50 in the experiment with SF-539, with Malme-3M, in the experiment on 786-0, in the experiment with K562, with HOP-92 and in the experiment with RXF 393 was > 100 µM (inactive) in each case. Moreover, the GI50 with OVCAR-3, in the experiment on SNB-19, with SW-620, in the experiment on SK-MEL-28, with SF-268 and with PC-3 was > 100 µM (inactive) throughout. In addition, the GI50 with MOLT-4 is > 100 µM (inactive); in the experiment with KM12, > 100 µM (inactive); in the experiment on SN12C, > 100 µM (inactive); in the experiment on HCT-15, more than 100 µM; in the experiment with U-251, > 100 µM (inactive); in the experiment with NCI-H460, > 100 µM (inactive).
As for `COC1(OC)N=C(N)C2(C#N)C(c3ccccc3)NC3=C(CCC3)C12C#N` (stereo not drawn), the GI50 in the experiment on CAKI-1, with Malme-3M, in the experiment with 786-0, in the experiment with HOP-92, in the experiment on RXF 393 and in the experiment on SNB-19 was > 100 µM (inactive) in each case. For the same molecule, the GI50 in the experiment on SW-620, with NCI-H522, in the experiment with SK-MEL-28, with SF-268, in the experiment on PC-3 and in the experiment with MOLT-4 was > 100 µM (inactive) in each case. In addition, the GI50 is > 100 µM (inactive) in the experiment on KM12; > 100 µM (inactive) in the experiment on SN12C; more than 100 µM in the experiment on HCT-15; > 100 µM (inactive) with U-251; > 100 µM (inactive) with NCI-H460.
`O=C(NC(CO)CO)c1ccc2cc(C(=O)N3CC(CCl)c4ccc([N+](=O)[O-])cc43)[nH]c2c1` (stereo not drawn): the GI50 with CAKI-1, in the experiment on SF-539, in the experiment on Malme-3M, in the experiment on 786-0, in the experiment on K562 and in the experiment with HOP-92 was > 100 µM (inactive) each time. Besides, the GI50 in the experiment on RXF 393, with OVCAR-3, in the experiment with SNB-19, with SW-620, with SK-MEL-28 and in the experiment on SF-268 was > 100 µM (inactive) each time. Further, the GI50 in the experiment with PC-3 is > 100 µM (inactive); with MOLT-4 it was > 100 µM (inactive); in the experiment with KM12 it was > 100 µM (inactive); in the experiment on SN12C it was > 100 µM (inactive); in the experiment on HCT-15, more than 100 µM; in the experiment on U-251, > 100 µM (inactive). In addition, the GI50 with NCI-H460 was > 100 µM (inactive).
Regarding `O=S(=O)(O)c1ccc(O)c2ncc(Cl)cc12`, the GI50 in the experiment on CAKI-1, in the experiment with SF-539, in the experiment on 786-0, in the experiment on K562, in the experiment on HOP-92 and with RXF 393 was > 100 µM (inactive) in each case. The GI50 in the experiment on OVCAR-3, with SNB-19, in the experiment with SW-620, with SK-MEL-28, with PC-3 and in the experiment on MOLT-4 was > 100 µM (inactive) throughout. Also, the GI50 in the experiment on KM12 is > 100 µM (inactive); in the experiment with SN12C, > 100 µM (inactive); in the experiment on HCT-15, more than 100 µM; with U-251 it was > 100 µM (inactive); in the experiment with NCI-H460, > 100 µM (inactive).
As to `Cc1nc(-c2ccc([N+](=O)[O-])cc2)cn2c1nc1ccccc12`, the GI50 in the experiment with CAKI-1 is > 100 µM (inactive); in the experiment on SF-539, > 100 µM (inactive); with Malme-3M it was > 100 µM (inactive); with 786-0 it was 71 µM (inactive); in the experiment on K562 it was > 100 µM (inactive); with HOP-92, 70.5 µM (inactive). For the same molecule, the GI50 in the experiment on RXF 393 was 41.6 µM (inactive); with OVCAR-3, > 100 µM (inactive); in the experiment with SNB-19, 65.8 µM (inactive); with SW-620, > 100 µM (inactive); with SK-MEL-28, > 100 µM (inactive); with SF-268 it was > 100 µM (inactive). The GI50 is > 100 µM (inactive) in the experiment with PC-3; > 100 µM (inactive) in the experiment on MOLT-4; > 100 µM (inactive) with KM12; > 100 µM (inactive) in the experiment on SN12C; more than 100 µM in the experiment on HCT-15; 40.2 µM (inactive) in the experiment on U-251. In the experiment with NCI-H460, the GI50 is > 100 µM (inactive).
In the case of `O=c1[nH][nH]c(=O)n1/N=C/c1ccccc1`, the GI50 in the experiment with CAKI-1, in the experiment with SF-539, with 786-0, in the experiment with K562, in the experiment on HOP-92 and in the experiment with OVCAR-3 was > 100 µM (inactive) in each case. For the same molecule, the GI50 with SNB-19, with SW-620, with SK-MEL-28, with SF-268, in the experiment with PC-3 and in the experiment on MOLT-4 was > 100 µM (inactive) in each case. Further, the GI50 with KM12 was > 100 µM (inactive); in the experiment on SN12C, > 100 µM (inactive); in the experiment on HCT-15, more than 100 µM; in the experiment on U-251 it was > 100 µM (inactive); with NCI-H460, > 100 µM (inactive).
For `COc1ccc(NC(=S)Nc2cc(C)ccn2)cc1`, the GI50 in the experiment with CAKI-1, with SF-539, in the experiment on 786-0, in the experiment on K562, with HOP-92 and in the experiment with RXF 393 was > 100 µM (inactive) throughout. In addition, the GI50 in the experiment on SNB-19, in the experiment with SW-620, in the experiment with SK-MEL-28, in the experiment with SF-268, with PC-3 and in the experiment with MOLT-4 was > 100 µM (inactive) each time. Moreover, the GI50 is > 100 µM (inactive) in the experiment with KM12, more than 100 µM in the experiment on HCT-15, > 100 µM (inactive) with U-251 and > 100 µM (inactive) in the experiment with NCI-H460.
Take `CSc1ncc2c(n1)-c1ccccc1OC2N1CCCC1` (stereo not drawn): the GI50 with CAKI-1 is 31 µM (inactive); in the experiment on SF-539 it was 84.5 µM (inactive); in the experiment on 786-0, > 100 µM (inactive); in the experiment on K562, 60.1 µM (inactive); in the experiment with HOP-92, > 100 µM (inactive); in the experiment with RXF 393, 64.6 µM (inactive). Further, the GI50 is 47.4 µM (inactive) with OVCAR-3; > 100 µM (inactive) in the experiment on SNB-19; 94.8 µM (inactive) with SW-620; 36.6 µM (inactive) in the experiment with NCI-H522; > 100 µM (inactive) in the experiment on SF-268; 57.3 µM (inactive) in the experiment with PC-3. Further, the GI50 in the experiment with MOLT-4 is 79.8 µM (inactive); in the experiment with KM12, > 100 µM (inactive); with SN12C, 71 µM (inactive); with HCT-15, 49.9 µM; in the experiment with U-251 it was 68.5 µM (inactive); in the experiment on NCI-H460, > 100 µM (inactive).
